Laboratory results taken from PubChem BioAssay (NCI).
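Values below derive from 48-hour exposures of cells grown in 96-well plates, with endpoints linearly interpolated between the two concentrations bracketing the appropriate inhibition level. TGI marks complete inhibition of growth.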

How the values were obtained:
Assay in all cases: NCI-60 cell line screen, 48 h
[1] = tested on: 786-0 renal
[2] = tested on: A498 renal
[3] = tested on: A549 NSCLC
[4] = tested on: ACHN renal
[5] = tested on: BT-549 breast
[6] = tested on: CAKI-1 renal
[7] = tested on: CCRF-CEM leukemia
[8] = tested on: COLO 205 colon
[9] = tested on: DU-145 prostate
[10] = tested on: EKVX NSCLC
[11] = tested on: HCC-2998 colon
[12] = tested on: HCT-116 colon
[13] = tested on: HCT-15 colon
[14] = tested on: HL-60(TB) leukemia
[15] = tested on: HOP-62 NSCLC
[16] = tested on: HOP-92 NSCLC
[17] = tested on: HS 578T breast
[18] = tested on: HT29 colon
[19] = tested on: IGROV1 ovarian
[20] = tested on: K-562 leukemia
[21] = tested on: KM12 colon
[22] = tested on: LOX IMVI melanoma
[23] = tested on: M14 melanoma
[24] = tested on: MALME-3M melanoma
[25] = tested on: MCF7 breast
[26] = tested on: MDA-MB-231 breast
[27] = tested on: MDA-MB-435
[28] = tested on: MDA-N
[29] = tested on: MOLT-4 leukemia
[30] = tested on: NCI-H226 lung
[31] = tested on: NCI-H23 lung
[32] = tested on: NCI-H460 lung
[33] = tested on: NCI-H522 lung
[34] = tested on: NCI/ADR-RES ovarian
[35] = tested on: OVCAR-3 ovarian
[36] = tested on: OVCAR-4 ovarian
[37] = tested on: OVCAR-5 ovarian
[38] = tested on: OVCAR-8 ovarian
[39] = tested on: PC-3 prostate
[40] = tested on: RPMI-8226 leukemia
[41] = tested on: RXF 393 renal
[42] = tested on: SF-268 CNS
[43] = tested on: SF-295 CNS
[44] = tested on: SF-539 CNS
[45] = tested on: SK-MEL-2 melanoma
[46] = tested on: SK-MEL-28 melanoma
[47] = tested on: SK-MEL-5 melanoma
[48] = tested on: SK-OV-3 ovarian
[49] = tested on: SN12C renal
[50] = tested on: SNB-19 CNS
[51] = tested on: SNB-75 CNS
[52] = tested on: SR leukemia
[53] = tested on: SW-620 colon
[54] = tested on: T-47D breast
[55] = tested on: TK-10 renal
[56] = tested on: U251 CNS
[57] = tested on: UACC-257 melanoma
[58] = tested on: UACC-62 melanoma
[59] = tested on: UO-31 renal

Measured: TGI

NC(CSS(=O)(=O)c1ccccc1)C(=O)O (centres undefined)
> 10 µM: [1] | [2] | [3] | [4] | [5] | [6] | [7] | [8] | [9] | [10] | [11] | [12] | [13] | [14] | [15] | [16] | [17] | [18] | [19] | [20] | [21] | [22] | [23] | [24] | [25] | [26] | [27] | [28] | [29] | [30] | [31] | [32] | [33] | [34] | [35] | [36] | [37] | [38] | [39] | [40] | [41] | [42] | [43] | [44] | [45] | [46] | [47] | [48] | [49] | [50] | [51] | [52] | [53] | [54] | [55] | [56] | [57] | [58] | [59]
